{"source": "ChEMBL document CHEMBL5696442", "about": "“Discovery of type II inhibitors of TGFβ-activated kinase 1 (TAK1) and mitogen-activated protein kinase kinase kinase kinase 2 (MAP4K2)” (J Med Chem, 2015)", "key": {"[1]": {"system": "Epidermal growth factor receptor (Homo sapiens), P00533 [G719C]", "experiment": "Inhibition of EGFR G719C mutant (unknown origin) at 10 uM by Ambit Kinomescan binding assay relative to control"}, "[2]": {"target": "Ephrin type-A receptor 1 (Homo sapiens) (UniProt P21709)", "experiment": "Inhibition of EPHA1 (unknown origin) at 10 uM by Ambit Kinomescan binding assay"}, "[3]": {"target": "Myosin-IIIb (Homo sapiens) (UniProt Q8WXR4)", "sequence (Q8WXR4 whole entry)": "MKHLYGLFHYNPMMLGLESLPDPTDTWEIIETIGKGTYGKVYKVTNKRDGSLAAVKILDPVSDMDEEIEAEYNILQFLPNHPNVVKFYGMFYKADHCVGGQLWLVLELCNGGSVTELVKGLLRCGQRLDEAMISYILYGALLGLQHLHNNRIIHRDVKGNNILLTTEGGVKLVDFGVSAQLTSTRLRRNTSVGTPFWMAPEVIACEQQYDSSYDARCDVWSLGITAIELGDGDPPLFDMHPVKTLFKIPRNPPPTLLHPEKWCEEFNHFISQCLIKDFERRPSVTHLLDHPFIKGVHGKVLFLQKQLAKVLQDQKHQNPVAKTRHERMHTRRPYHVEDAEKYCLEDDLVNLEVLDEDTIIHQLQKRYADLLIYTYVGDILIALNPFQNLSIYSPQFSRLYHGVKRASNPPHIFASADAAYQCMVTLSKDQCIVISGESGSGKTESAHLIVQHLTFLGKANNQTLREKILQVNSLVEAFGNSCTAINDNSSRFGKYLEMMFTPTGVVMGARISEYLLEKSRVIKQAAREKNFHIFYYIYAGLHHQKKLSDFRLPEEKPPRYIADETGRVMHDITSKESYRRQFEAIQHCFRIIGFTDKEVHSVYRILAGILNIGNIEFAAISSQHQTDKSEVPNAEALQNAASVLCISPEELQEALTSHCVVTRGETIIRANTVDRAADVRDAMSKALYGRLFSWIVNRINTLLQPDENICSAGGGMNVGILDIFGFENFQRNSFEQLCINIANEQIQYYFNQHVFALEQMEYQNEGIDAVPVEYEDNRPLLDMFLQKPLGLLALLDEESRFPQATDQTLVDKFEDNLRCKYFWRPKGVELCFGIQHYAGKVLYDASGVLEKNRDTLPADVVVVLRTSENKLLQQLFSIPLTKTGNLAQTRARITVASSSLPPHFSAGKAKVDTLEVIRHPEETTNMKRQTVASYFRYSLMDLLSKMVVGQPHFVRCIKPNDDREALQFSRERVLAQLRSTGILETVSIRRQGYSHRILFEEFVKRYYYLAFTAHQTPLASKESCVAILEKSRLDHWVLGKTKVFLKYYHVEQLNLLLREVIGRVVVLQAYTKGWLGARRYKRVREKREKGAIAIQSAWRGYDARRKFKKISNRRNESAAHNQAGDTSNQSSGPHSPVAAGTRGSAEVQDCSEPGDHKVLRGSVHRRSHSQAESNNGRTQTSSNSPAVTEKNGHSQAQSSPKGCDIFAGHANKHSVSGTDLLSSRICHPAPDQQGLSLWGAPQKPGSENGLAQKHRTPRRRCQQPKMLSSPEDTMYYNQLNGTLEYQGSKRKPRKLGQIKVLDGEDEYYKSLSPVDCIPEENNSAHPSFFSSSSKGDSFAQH", "experiment": "Inhibition of MYO3B (unknown origin) at 10 uM by Ambit Kinomescan binding assay relative to control"}, "[4]": {"target": "MAP/microtubule affinity-regulating kinase 3 (Homo sapiens) (UniProt P27448)", "experiment": "Inhibition of MARK3 (unknown origin) at 10 uM by Ambit Kinomescan binding assay"}, "[5]": {"target": "Microtubule-associated serine/threonine-protein kinase 3 (Homo sapiens) (UniProt O60307)", "experiment": "Inhibition of MAST3 Lys2 labeling site in human A-375 cells at 5 uM by KiNativ Profiling analysis relative to control", "format": "cell-based"}, "[6]": {"target": "Casein kinase II subunit alpha (Homo sapiens) (UniProt P68400)", "experiment": "Inhibition of CK2a1 in human Huh-7 cells at 10 uM by KiNativ Profiling analysis relative to control", "format": "cell-based"}, "[7]": {"target": "Dual specificity mitogen-activated protein kinase kinase; MEK1/2 (Homo sapiens) (UniProt P36507+Q02750)", "sequence (P36507 whole entry, looked up)": "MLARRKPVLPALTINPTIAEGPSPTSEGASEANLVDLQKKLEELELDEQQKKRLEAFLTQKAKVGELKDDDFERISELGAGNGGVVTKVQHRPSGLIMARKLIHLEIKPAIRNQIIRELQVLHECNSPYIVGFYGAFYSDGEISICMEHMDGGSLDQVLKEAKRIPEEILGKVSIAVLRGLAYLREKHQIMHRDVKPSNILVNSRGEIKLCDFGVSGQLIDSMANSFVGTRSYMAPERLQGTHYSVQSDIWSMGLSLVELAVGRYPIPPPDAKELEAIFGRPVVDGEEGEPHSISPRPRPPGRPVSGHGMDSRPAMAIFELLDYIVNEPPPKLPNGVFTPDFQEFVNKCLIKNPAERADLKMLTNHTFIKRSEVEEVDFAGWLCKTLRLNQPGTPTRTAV", "sequence (Q02750 whole entry, looked up)": "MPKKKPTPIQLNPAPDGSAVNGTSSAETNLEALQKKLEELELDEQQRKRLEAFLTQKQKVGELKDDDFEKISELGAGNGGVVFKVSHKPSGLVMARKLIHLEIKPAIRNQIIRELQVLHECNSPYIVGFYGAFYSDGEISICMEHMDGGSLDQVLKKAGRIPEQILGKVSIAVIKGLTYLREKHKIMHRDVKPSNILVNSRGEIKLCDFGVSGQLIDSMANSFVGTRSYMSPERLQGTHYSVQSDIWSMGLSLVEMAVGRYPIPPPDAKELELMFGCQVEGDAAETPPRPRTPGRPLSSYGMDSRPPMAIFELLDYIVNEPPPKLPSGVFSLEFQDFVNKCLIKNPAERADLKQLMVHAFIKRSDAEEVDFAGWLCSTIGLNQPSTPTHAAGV", "experiment": "Inhibition of MAP2K1/2 K2 labeling site in human Huh-7 cells at 10 uM by KiNativ Profiling analysis relative to control", "format": "cell-based"}, "[8]": {"target": "SRSF protein kinase 1 (Homo sapiens) (UniProt Q96SB4)", "sequence (Q96SB4 whole entry)": "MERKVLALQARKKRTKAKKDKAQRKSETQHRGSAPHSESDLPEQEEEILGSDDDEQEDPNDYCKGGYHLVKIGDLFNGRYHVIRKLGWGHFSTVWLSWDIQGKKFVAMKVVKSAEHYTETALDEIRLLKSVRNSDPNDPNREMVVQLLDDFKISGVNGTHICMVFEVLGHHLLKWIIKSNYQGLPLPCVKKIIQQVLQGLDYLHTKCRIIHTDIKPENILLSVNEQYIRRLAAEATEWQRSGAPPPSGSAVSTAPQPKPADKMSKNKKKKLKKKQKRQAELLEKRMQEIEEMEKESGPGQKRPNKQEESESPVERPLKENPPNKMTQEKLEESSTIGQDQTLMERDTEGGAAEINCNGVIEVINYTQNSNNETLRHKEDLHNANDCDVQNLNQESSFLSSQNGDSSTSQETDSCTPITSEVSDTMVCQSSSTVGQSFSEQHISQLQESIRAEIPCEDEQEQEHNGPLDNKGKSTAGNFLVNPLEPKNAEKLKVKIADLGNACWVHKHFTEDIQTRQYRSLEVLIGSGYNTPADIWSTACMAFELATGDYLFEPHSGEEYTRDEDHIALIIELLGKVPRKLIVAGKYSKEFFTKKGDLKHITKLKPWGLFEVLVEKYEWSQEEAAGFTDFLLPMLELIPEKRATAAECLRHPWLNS", "experiment": "Inhibition of SRPK1 (unknown origin) at 10 uM by Ambit Kinomescan binding assay"}, "[9]": {"target": "T1, Serine/threonine-protein kinase D2 (Homo sapiens) (UniProt Q9BZL6)", "T1 sequence (whole entry)": "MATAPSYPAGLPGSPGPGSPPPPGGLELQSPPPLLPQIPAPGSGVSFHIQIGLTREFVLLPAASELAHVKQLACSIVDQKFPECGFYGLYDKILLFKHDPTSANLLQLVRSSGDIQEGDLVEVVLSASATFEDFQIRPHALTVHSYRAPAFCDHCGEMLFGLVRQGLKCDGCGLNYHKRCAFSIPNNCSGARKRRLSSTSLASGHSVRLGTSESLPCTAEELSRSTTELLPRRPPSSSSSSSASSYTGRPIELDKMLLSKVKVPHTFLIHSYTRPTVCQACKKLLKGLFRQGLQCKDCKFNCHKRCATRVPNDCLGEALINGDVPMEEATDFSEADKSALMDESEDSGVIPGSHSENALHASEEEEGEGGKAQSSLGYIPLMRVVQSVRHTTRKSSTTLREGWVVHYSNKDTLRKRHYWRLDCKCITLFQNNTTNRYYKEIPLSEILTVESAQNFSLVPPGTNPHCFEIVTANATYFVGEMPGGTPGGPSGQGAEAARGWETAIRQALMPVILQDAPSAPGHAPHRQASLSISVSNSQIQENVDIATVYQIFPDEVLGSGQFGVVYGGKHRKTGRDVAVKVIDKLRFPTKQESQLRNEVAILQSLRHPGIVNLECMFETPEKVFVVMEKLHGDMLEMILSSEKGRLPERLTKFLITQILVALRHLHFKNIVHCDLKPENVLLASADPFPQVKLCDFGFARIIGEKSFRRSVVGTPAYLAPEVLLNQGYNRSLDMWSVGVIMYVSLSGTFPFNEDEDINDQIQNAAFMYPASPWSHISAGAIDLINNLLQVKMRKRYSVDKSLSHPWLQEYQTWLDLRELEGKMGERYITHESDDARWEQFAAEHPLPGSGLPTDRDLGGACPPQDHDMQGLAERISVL", "experiment": "Inhibition of PKD2 Lys2 labeling site in human Huh-7 cells at 1 uM by KiNativ Profiling analysis relative to control", "format": "cell-based"}, "[10]": {"target": "Serine/threonine-protein kinase N2 (Homo sapiens) (UniProt Q16513)", "sequence (Q16513 whole entry, looked up)": "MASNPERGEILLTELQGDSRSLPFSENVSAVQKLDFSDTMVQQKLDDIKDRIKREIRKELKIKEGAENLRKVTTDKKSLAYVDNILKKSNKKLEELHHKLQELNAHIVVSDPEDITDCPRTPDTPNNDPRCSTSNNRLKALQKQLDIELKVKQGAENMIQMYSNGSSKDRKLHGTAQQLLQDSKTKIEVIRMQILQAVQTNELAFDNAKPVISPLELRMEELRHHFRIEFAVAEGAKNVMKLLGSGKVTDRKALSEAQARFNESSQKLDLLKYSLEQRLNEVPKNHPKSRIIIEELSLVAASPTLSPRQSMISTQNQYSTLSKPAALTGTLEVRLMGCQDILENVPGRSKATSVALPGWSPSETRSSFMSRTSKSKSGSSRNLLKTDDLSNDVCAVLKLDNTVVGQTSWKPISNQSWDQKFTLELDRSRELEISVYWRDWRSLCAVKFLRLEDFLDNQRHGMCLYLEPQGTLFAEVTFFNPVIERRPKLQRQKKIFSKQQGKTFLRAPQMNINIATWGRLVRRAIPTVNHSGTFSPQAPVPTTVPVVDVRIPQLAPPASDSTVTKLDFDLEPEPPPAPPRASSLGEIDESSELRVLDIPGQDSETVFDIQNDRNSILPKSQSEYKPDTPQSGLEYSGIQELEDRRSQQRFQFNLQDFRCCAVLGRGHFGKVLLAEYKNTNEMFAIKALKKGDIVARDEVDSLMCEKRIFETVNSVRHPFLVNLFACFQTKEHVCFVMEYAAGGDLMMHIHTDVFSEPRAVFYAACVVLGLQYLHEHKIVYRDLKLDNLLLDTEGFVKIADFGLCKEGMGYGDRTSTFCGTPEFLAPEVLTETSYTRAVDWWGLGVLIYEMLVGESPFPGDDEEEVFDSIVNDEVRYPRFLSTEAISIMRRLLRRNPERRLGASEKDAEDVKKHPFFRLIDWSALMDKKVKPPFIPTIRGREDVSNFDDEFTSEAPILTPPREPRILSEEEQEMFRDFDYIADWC", "experiment": "Inhibition of PKN2 Lys2 labeling site in human Huh-7 cell lysate at 1 uM by KiNativ Profiling analysis relative to control", "format": "subcellular"}, "[11]": {"target": "5'-AMP-activated protein kinase catalytic subunit alpha-2 (Homo sapiens) (UniProt P54646)", "experiment": "Inhibition of AMPKa2 Lys1 labeling site in human Huh-7 cell lysate at 1 uM by KiNativ Profiling analysis relative to control", "format": "subcellular"}, "[12]": {"target": "Tyrosine-protein kinase Srms (Homo sapiens) (UniProt Q9H3Y6)", "experiment": "Inhibition of SRMS (unknown origin) at 1 uM by Ambit Kinomescan binding assay relative to control"}, "[13]": {"target": "Dual specificity protein kinase TTK (Homo sapiens) (UniProt P33981)", "experiment": "Inhibition of TTK (unknown origin) at 1 uM by Ambit Kinomescan binding assay relative to control"}, "[14]": {"target": "Serine/threonine-protein kinase TNNI3K (Homo sapiens) (UniProt Q59H18)", "experiment": "Inhibition of TNNI3K (unknown origin) at 1 uM by Ambit Kinomescan binding assay relative to control"}, "[15]": {"target": "Serine/threonine-protein kinase Nek3 (Homo sapiens) (UniProt P51956)", "sequence (P51956 whole entry)": "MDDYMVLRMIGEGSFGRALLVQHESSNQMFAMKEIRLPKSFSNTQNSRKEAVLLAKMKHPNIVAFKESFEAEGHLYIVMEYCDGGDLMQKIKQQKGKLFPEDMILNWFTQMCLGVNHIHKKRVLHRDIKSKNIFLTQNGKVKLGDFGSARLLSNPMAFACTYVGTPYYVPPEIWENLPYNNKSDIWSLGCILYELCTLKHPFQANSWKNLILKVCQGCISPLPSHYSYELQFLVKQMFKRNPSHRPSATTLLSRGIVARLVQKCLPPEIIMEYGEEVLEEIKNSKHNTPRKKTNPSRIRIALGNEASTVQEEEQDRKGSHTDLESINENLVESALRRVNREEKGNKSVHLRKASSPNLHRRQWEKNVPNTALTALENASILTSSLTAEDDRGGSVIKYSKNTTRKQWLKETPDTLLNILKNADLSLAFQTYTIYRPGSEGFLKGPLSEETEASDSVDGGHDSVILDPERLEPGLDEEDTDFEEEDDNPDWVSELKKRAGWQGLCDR", "experiment": "Inhibition of NEK3 (unknown origin) at 1 uM by Ambit Kinomescan binding assay relative to control; values are per cent of control"}, "[16]": {"target": "Serine/threonine-protein kinase 16 (Homo sapiens) (UniProt O75716)", "sequence (O75716 whole entry)": "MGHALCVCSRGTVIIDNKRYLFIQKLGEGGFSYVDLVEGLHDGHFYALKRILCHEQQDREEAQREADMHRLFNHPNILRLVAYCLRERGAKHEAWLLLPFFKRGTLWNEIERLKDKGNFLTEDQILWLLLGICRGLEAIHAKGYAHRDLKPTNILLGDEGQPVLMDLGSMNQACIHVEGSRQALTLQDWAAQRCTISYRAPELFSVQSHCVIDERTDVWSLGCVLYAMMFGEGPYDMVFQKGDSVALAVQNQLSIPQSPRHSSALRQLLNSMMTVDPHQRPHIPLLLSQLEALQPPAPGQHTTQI", "experiment": "Inhibition of MPSK1 Lys2 labeling site in human A-375 cells at 0.5 uM by KiNativ Profiling analysis relative to control", "format": "cell-based"}, "[17]": {"target": "Death-associated protein kinase 1 (Homo sapiens) (UniProt P53355)", "experiment": "Inhibition of DAPK1 (unknown origin) at 1 uM by Ambit Kinomescan binding assay relative to control; values are per cent of control"}, "[18]": {"target": "T2, Phosphatidylinositol 5-phosphate 4-kinase type-2 beta (Homo sapiens) (UniProt P78356)", "T2 sequence (whole entry)": "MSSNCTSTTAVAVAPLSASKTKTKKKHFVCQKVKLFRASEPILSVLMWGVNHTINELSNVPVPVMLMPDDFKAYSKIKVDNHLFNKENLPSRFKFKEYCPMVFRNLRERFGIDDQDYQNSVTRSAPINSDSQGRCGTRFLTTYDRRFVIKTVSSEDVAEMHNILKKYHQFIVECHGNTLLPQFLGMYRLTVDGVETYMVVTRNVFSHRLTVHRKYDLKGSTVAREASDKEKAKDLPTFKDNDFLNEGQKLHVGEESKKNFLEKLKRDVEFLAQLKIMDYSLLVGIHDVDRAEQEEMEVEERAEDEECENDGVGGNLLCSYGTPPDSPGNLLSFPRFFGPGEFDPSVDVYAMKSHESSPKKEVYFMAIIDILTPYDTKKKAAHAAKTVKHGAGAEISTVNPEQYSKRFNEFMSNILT", "experiment": "Inhibition of PIP5K2B (unknown origin) at 1 uM by Ambit Kinomescan binding assay relative to control; values are per cent of control"}, "[19]": {"target": "Casein kinase I isoform epsilon (Homo sapiens) (UniProt P49674)", "sequence (P49674 whole entry, looked up, canonical isoform)": "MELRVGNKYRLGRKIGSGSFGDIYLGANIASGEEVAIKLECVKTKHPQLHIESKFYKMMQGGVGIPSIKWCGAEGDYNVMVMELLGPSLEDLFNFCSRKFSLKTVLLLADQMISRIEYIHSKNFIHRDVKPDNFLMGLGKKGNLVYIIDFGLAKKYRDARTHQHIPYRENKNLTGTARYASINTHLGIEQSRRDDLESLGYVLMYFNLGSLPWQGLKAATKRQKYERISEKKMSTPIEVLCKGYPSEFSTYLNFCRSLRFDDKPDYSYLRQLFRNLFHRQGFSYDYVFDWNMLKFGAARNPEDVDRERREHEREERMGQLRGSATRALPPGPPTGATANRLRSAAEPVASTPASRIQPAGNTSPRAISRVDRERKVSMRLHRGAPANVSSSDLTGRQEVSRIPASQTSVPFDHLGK", "experiment": "Inhibition of CSNK1E (unknown origin) at 1 uM by Ambit Kinomescan binding assay relative to control"}}, "note": "Activity calls are given as the source filed them. The rule behind the calls is not given here.", "data": [{"smiles": "CCN1CCN(Cc2ccc(NC(=O)c3ccc(C)c(Oc4ccnc5[nH]ccc45)c3)cc2C(F)(F)F)CC1", "values": [{"measurement": "inhibition", "setting": "[1]", "result": 12, "unit": "%"}, {"measurement": "inhibition", "setting": "[2]", "result": "inactive"}, {"measurement": "inhibition", "setting": "[3]", "result": 4.8, "unit": "%"}, {"measurement": "inhibition", "setting": "[4]", "result": "inactive"}, {"measurement": "inhibition", "setting": "[5]", "result": 4.8, "unit": "%"}, {"measurement": "inhibition", "setting": "[6]", "result": 12.3, "unit": "%"}, {"measurement": "inhibition", "setting": "[7]", "result": 14.4, "unit": "%"}, {"measurement": "inhibition", "setting": "[8]", "result": "inactive"}]}, {"smiles": "CNc1cc(Oc2cc(C(=O)Nc3cc(N4CCN(C)CC4)cc(C(F)(F)F)c3)ccc2C)ncn1", "values": [{"measurement": "inhibition", "setting": "[9]", "result": 9, "unit": "%"}, {"measurement": "inhibition", "setting": "[10]", "result": -8.4, "unit": "%"}, {"measurement": "inhibition", "setting": "[11]", "result": 8.7, "unit": "%"}]}, {"smiles": "CCN1CCN(Cc2ccc(NC(=O)c3ccc(C)c(/C=C/c4cnc5[nH]ccc5c4OC)c3)cc2C(F)(F)F)CC1", "values": [{"measurement": "inhibition", "setting": "[12]", "result": 34, "unit": "%"}, {"measurement": "inhibition", "setting": "[13]", "result": 56, "unit": "%"}, {"measurement": "inhibition", "setting": "[14]", "result": 5.9, "unit": "%"}, {"measurement": "residual activity", "setting": "[15]", "result": 79, "unit": "%"}, {"measurement": "inhibition", "setting": "[16]", "result": 15, "unit": "%"}, {"measurement": "residual activity", "setting": "[17]", "result": 77, "unit": "%"}, {"measurement": "residual activity", "setting": "[18]", "result": 12, "unit": "%"}, {"measurement": "inhibition", "setting": "[19]", "result": 80, "unit": "%"}]}]}
